According to PubChem BioAssay AID179 (DTP/NCI, 2004):
Calls of active or inactive are those of the source.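 Rule for the calls: active = compounds giving half or more protection of infected cells from virus-caused growth loss, again on retest; inactive = the rest.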 Where a SMILES comes first, the peptide text is derived from it. The star is where a group is joined. Boc = CC(C)(C)OC(=O)*; OBn = c1ccc(CO*)cc1

Test system: CEM cells HIV-1 protection, formazan growth assay
Experiment: NCI AIDS Antiviral Assay
Settings: for IC50: measured here: growth of uninfected CEM cells
Outline: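 Five concentrations of each compound were applied to infected and uninfected human CEM cells. Protection from HIV-1 was judged from growth measured with a soluble formazan assay.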

| Compound | EC50 [µM] | IC50 [µM] | outcome |
| --- | --- | --- | --- |
| CC(C)CCCC(C)[C@H]1CCC2C3CCC4C[C@@H](CCC=C(c5cc(Cl)c(OCc6ccc([N+](=O)[O-])cc6)c(C(=O)O)c5)c5cc(Cl)c(OCc6ccc([N+](=O)[O-])cc6)c(C(=O)O)c5)CC[C@]4(C)C3CC[C@@]21C (stereo not given in full) | 115 | > 200 |  |
| CC(C)c1cccc(C(C)C)c1NC(=O)C(=O)CC(=O)CC(c1ccccc1)c1c(O)c2ccccc2oc1=O (stereo not given) | > 468 | 229 |  |
| CC[N+]1(C)CCC(O)(c2ccc(C)cc2)C(C(=O)c2ccc(C)cc2)C1 (stereo not given) | > 200 |  |  |
| CC1(C)Cc2c(oc3ncnc(N)c23)CS1 | > 288 | > 288 |  |
| N.N.O=N[O-].O=N[O-].O=N[O-].O=N[O-].[Co+3].[Cs+] |  |  | inactive |
| CCN(CC)CCN1C(=O)c2cccc3cc([N+](=O)[O-])cc(c23)C1=O | > 200 | 1.48 |  |
| COC1/C=C/OC2(C)Oc3c(C)c(O)c4c(O)c(cc(OCC(=O)N5CC(C)(C)C5)c4c3C2=O)NC(=O)/C(C)=C/C=CC(C)C(O)C(C)C(O)C(C)C(OC(C)=O)C1C (stereo not given) | > 200 | 26.9 |  |
| O=S(=O)(Oc1cccc2ccccc12)C(F)(F)F | > 200 | 120 |  |
| BrC1(c2ccccc2)C[n+]2c(-c3ccccc3)cc(-c3ccccc3)cc2-c2ccccc21 (stereo not given) | > 200 | 0.741 |  |
| O=C(/C=C/c1ccccc1O)c1ccc([N+](=O)[O-])cc1 | > 95.5 | 53.7 |  |
| C/C(=C\c1ccccc1)C(O)C(=O)c1nc2ccc(Cl)cc2[nH]c1=O (stereo not given) | > 708 | 33.9 |  |
| CN(C)CC1C(O)C2CCN1CC2 (stereo not given) |  |  | inactive |
| Cc1cc(O)c2c(c1)C(C1OC(CO)C(O)C(O)C1O)c1cc(O)cc(O)c1C2=O (stereo not given) | > 200 | > 200 |  |
| Cc1c(Cl)ccc2[s+]snc12 |  |  | inactive |
| Cc1ccc(S(=O)(=O)N/N=C(\c2nc3ccc([N+](=O)[O-])cc3[nH]c2=O)C(O)c2ccc([N+](=O)[O-])cc2)cc1 (stereo not given) | > 126 | 112 |  |
| C=CCNC(=O)N(CCC)CCCC(NC(C)=O)C(=O)NCc1ccccc1 (stereo not given) | > 646 | > 646 |  |
| CC(=O)Nc1oc(C)c(C)c1S(=O)(=O)c1ccc(Cl)cc1 | > 200 | 107 |  |
| COC(=O)CC1(O)C(/C=C/c2ccccc2)C(C(=O)OC)C(=O)C(C(=O)OC)C1C(=O)OC (stereo not given) | > 50.1 | 37.2 |  |
| N/C(=N/N=C/c1cccc([N+](=O)[O-])c1)NO |  |  | inactive |
| CCOC(CN(C)C(=O)OCC(Cl)(Cl)Cl)OCC | > 22.4 | > 22.4 |  |
| COc1ccccc1/C=c1\[nH]c(=O)/c(=C/c2ccccc2OC)[nH]c1=O | > 28.2 | > 28.2 |  |
| Cc1c(NC(=O)CCCl)c(=O)oc2c(C)c3occc(=O)c3cc12 | > 145 | 1.48 |  |

| Compound | EC50 [µM] | IC50 [µM] | outcome |
| --- | --- | --- | --- |
| CC(=O)N(CN1C(=O)CCC1C(=O)O)c1ccccc1 (stereo not given) |  |  | inactive |
| COc1cc2c(cc1O)C1COc3cc4c(cc3C1O2)CCC(C)(C)O4 (stereo not given) | > 200 | 11.5 |  |
| O=C(O)c1ccc(/C=C/c2ccc(N=Nc3c(O)cc(O)cc3C(=O)O)cc2C(=O)O)cc1 | > 200 | 120 |  |
| CCCCCC=C1c2ccccc2C=Cc2ccccc21 | > 200 | 72.4 |  |
| O=C(O)c1ccccc1CC1Cc2ccc3c(c2C1=O)CCC3 (stereo not given) | > 200 | 112 |  |
| CC(C)(C)C1CCC(=O)C(C(O)CC2CC(=O)N(c3ccccc3)C(=O)C2)C1 (stereo not given) | > 200 | > 200 |  |
| OCC(CCc1ccccc1I)C1=CCC2(CC1)OCCO2 (stereo not given) | > 200 | 34.7 |  |
| Cn1cc2ccccc2c1-c1nc(F)nc(Oc2ccc3c(c2)CC[C@@H]2C3CC[C@@]3(C)C2CC[C@@H]3O)n1 (stereo not given in full) | > 5.5 | > 5.5 |  |
| Cc1cc2nc(CCC(=O)O)c(=O)[nH]c2cc1C | > 1000 | > 1000 |  |
| CCOC(=O)c1c(N)n(-c2ccccc2)c(=S)n(-c2ccccc2)c1=O | > 178 | > 178 |  |
| CCOC(=O)C1=C(OC(OCC)C(CC)[Se]c2ccccc2)CCCC1 (stereo not given) | > 23.4 | > 23.4 |  |
| CCOC(=O)c1nc2cc(F)c(N3CCOCC3)cc2[nH]c1=O | > 200 | 95.5 |  |
| CCOC(=O)NC(S(=O)(=O)O)S(=O)(=O)O | > 200 | > 200 |  |
| CC(=O)O[C@H]1CC[C@H]2[C@@H]3CCc4cc(O)c(I)cc4[C@H]3CC[C@]12C | > 200 | 12 |  |
| CC1=NNC(=O)C1C1C=C(c2c[nH]c3ccccc23)OC1=O (stereo not given) | > 200 | 102 |  |
| C1=Nc2ccccc2Cn2nncc21 | > 1350 | 21.9 |  |
| Cc1ccc(C2=Nc3ccccc3NC(=O)C2)cc1 | 20.4 | 75.9 |  |
| Fc1ccc(NC2=NCCN=C(Nc3ccc(F)cc3)SS2)cc1 | > 200 | 24.5 |  |
| O=C(O)c1c2c(nc3ccccc13)CCC2 | > 447 | > 447 |  |
| CN(C)c1ccc(-c2ccc(N(C)C)c3n[se]nc23)c2n[se]nc12 | > 200 | > 200 |  |
| Cc1nc2sc(CCl)nn2c(=O)c1Cl | > 200 | 3.98 |  |
| CC(C)C1=C(O)C2=C(C(=O)C1=O)C1(C)CCCC(C)(C)C1C(O)C2OC=O (stereo not given) | > 200 | 10.2 |  |

| Compound | EC50 [µM] | IC50 [µM] | outcome |
| --- | --- | --- | --- |
| Cc1nn2c(nc1=O)sc1ccc3ccccc3c12 | > 83.2 | > 83.2 |  |
| OC1C[C@H](c2ccccc2)C2(C(O)c3ccccc3C2O)[C@@H](c2ccccc2)C1 (stereo not given in full) | > 200 | 89.1 |  |
| NC(=O)C1C(=O)Oc2cccnc21 (stereo not given) |  |  | inactive |
| Cc1nc2c(=O)n(C)c(=O)nc-2n(-c2ccc(Cl)cc2)c1C |  |  | inactive |
| CC(C)CC(NC(=O)C(Cc1ccccc1)NC(=O)C(Cc1ccccc1)NC(=O)OC(C)(C)C)C(=O)OCc1ccccc1 (stereo not drawn) (Boc-Phe-Phe-Leu-OBn; configuration not given here) | > 200 | > 200 |  |
| CN(Cc1cnc2nc(N)nc(N)c2n1)c1ccc(C(=O)N[C@@H](CCC(=O)O)C(=O)O)cc1 | > 1.51 | 0.00372 |  |
| CCOC(=O)C1=C(C)NC(c2ccco2)=C(C#N)C1c1cccc([N+](=O)[O-])c1 (stereo not given) | > 0.2 | 0.0832 |  |
| CC1(C)CC23C4COC(=O)C2CCC1C3CC4=O (stereo not given) | > 117 | 4.07 |  |
| O=S(=O)(O)SCCCNCCCCCCCCNCCCSS(=O)(=O)O | > 200 | 10 |  |
| O=c1oc2ccccc2c(O)c1C(c1ccc(O)cc1)c1c(O)c2ccccc2oc1=O |  |  | inactive |
| COC(OC)c1cccnc1C | > 1480 | 1050 |  |
| C/C(O)=C(\C=N\C(=S)Nc1cccc(C(F)(F)F)c1)C(=O)Nc1ccccc1C | > 100 | 75.9 |  |
| C=C1CN(S(=O)(=O)c2ccc(C)cc2)CCCN(Cc2ccncc2)CCCN(S(=O)(=O)c2ccc(C)cc2)C1 | > 200 | 4.37 |  |
| CS(=O)(=O)O[C@H]1[C@H](O)c2ccccc2[C@@H]1N=[N+]=[N-] | > 200 | > 200 |  |
| O=S(=O)(O)Oc1cc2c(c(OS(=O)(=O)O)c1)C[C@H](OS(=O)(=O)O)[C@@H](c1ccc(OS(=O)(=O)O)c(OS(=O)(=O)O)c1)O2 | 91.2 | 174 |  |
| COC=C1C(=O)OC(C)(C)OC1=O | 28.8 | 107 |  |
| Cc1ccc(C)c2c1C(=O)N(c1ccccc1)C2=O | > 200 | > 200 |  |
| CC(C)(C)OC(=O)NCCNC(=O)OCc1ccccc1 | > 200 | > 200 |  |
| CC(=O)Nc1cc2ccc(C)nc2c2nc(C)ccc12.CC(=O)Nc1cc2ccc(C)nc2c2nc(C)ccc12.O=C1OC(C(O)C[O-])C(O)=C1O.[Cu+] | > 12.6 | 2.09 |  |
| COC(=O)/C(=C/c1ccc(OC)cc1)C(C(=O)O)=C(C)C | > 871 | 11.2 |  |
| O=C(CCCC[P+](c1ccccc1)(c1ccccc1)c1ccccc1)c1ccccc1 | > 200 | 0.661 |  |
| O=C1C2C3C=C4c5ccccc5N(c5ccccc5)C4(C2C(=O)N1c1ccc(Br)cc1)[C@H]1C(=O)N(c2ccc(Br)cc2)C(=O)[C@@H]31 (stereo not given in full) | > 5.25 | > 5.25 |  |

| Compound | EC50 [µM] | IC50 [µM] | outcome |
| --- | --- | --- | --- |
| CS(=O)(=O)c1noc(N)n1 | > 1510 | 1260 |  |
| Oc1ccccc1-c1nc2sc(-c3ccccc3O)nc2s1 | > 200 | 132 |  |
| NC(=S)N/N=C/c1ncccc1O | > 12.6 | 0.794 |  |
| O=C(O)c1ccc(Nc2nc3nn(Cc4ccccc4)cc3c(=O)s2)cc1 | > 195 | > 195 |  |
| COc1cc2c(=O)cnoc2cc1O | > 200 | 26.3 |  |
| CC(C)(CO)N=Cc1ccccc1[O-].CC(C)(CO)N=Cc1ccccc1[O-].[Co+2] | > 151 | > 151 |  |
| NC1c2ccccc2Nc2ccccc21 | > 182 | 1.29 |  |
| CC(=O)Nc1[nH]n(C)c(=O)c1-c1nnc(C)s1 | > 977 | 437 |  |
| CCCCCCCCCCCCn1[nH]c(C)c(C(=S)SCCCCCCCC)c1=O | > 57.5 | 56.2 |  |
| O=c1[nH]n(Cc2ccccn2)c2ccc([N+](=O)[O-])cc12 | > 200 | > 200 |  |
| CCCCCCCCCCCCCCCCC(=O)NCC(=O)NCC(=O)NC(Cc1ccccc1)C(=O)Oc1ccc([N+](=O)[O-])cc1 (stereo not given) | > 200 | 18.2 |  |
| O=C(CCl)Nc1cccc2ccccc12 | > 200 | 3.24 |  |
| c1ccc2sc(SSSc3nc4ccccc4s3)nc2c1 | 14.1 | 34.7 |  |
| COc1cc2c(cc1O)-c1[nH]ncc1CCC2 | > 43.7 | > 43.7 |  |
| COc1ccc(NS(=O)(=O)c2ccc3ncn(NS(=O)(=O)c4ccc(I)cc4)c(=O)c3c2)cc1 |  |  | inactive |
| COC(=O)C1=C(C(=O)OC)C2(C)OC1C(=O)C21CC1 (stereo not given) |  |  | inactive |
| O=[N+]([O-])c1ccc2c(c1)OCCOCCOc1ccc([N+](=O)[O-])cc1OCCOCCO2 |  |  | inactive |
| CCc1c(O)sc2c(c1=O)C(=NCC(C)C)CC(C)(C)N2 | > 32.4 | > 32.4 |  |
| N#Cc1sc2c(c1OC(=O)c1cccs1)c(=O)n(-c1ccccc1)c(=S)n2-c1ccccc1 | > 200 | 6.03 |  |
| CN1C(c2ccccc2)=C(C#N)C(=O)CC(c2cccs2)N1C (stereo not given) | > 200 | 191 |  |
